Among the data in ChEMBL document CHEMBL3525916, “Investigation of figopitant and its metabolites in rat tissue by combining whole-body autoradiography with liquid extraction surface analysis mass spectrometry” (Drug Metab Dispos, 2012) are Retention_time values, retold here.

For the data set, the system named is Rattus norvegicus. The data set can be described thus: Retention time in albino Wistar Hannover rat treated with 5 mg/kg, iv of [14C]figopitant. The class given is ADME, organism-based. Also noted: dose 5 mg/kg, route intravenous. The note with it: in vivo.
On to `CN(CC(O)c1cc(C(F)(F)F)cc(C(F)(F)F)c1)C(=O)[C@H](c1ccccc1)N1CCN(CC2CC2)CC1` (stereo partly drawn), for which the Retention_time is recorded as 24.2 min.

The molecule `CN(CCc1cc(C(F)(F)F)cc(C(F)(F)F)c1)C(=O)[C@H](c1ccccc1)N1CCNCC1` had a Retention_time of 14.5 min. As to `CN(CCc1cc(C(F)(F)F)cc(C(F)(F)F)c1)C(=O)[C@@H](NCCN)c1ccccc1`, the Retention_time amounted to 11.9 min.
